According to ChEMBL document CHEMBL4138123, “Design, synthesis and biological evaluation of novel pyrazolochalcones as potential modulators of PI3K/Akt/mTOR pathway and inducers of apoptosis in breast cancer cells” (Eur J Med Chem, 2017):

Experiments:
Format in all cases: functional
NCI-H23 [1] = assay: Cytotoxicity against human NCI-H23 cells assessed as cell growth at 10 uM after 48 hrs by sulforhodamine B assay relative to control; details: NCI-H23, 48 h, read-out: Activity
786-0 [2] = assay: Cytotoxicity against human 786-0 cells assessed as cell growth at 10 uM after 48 hrs by sulforhodamine B assay relative to control; details: 786-0, 48 h, read-out: Activity
SF-539 = assay: Cytotoxicity against human SF539 cells assessed as cell growth at 100 uM after 48 hrs by sulforhodamine B assay relative to control; details: SF-539, 48 h, read-out: Activity
Hs-578T = assay: Cytotoxicity against human Hs 578T cells assessed as cell growth at 0.1 uM after 48 hrs by sulforhodamine B assay relative to control; details: read-out: Activity
A498 = assay: Cytotoxicity against human A498 cells assessed as cell growth at 1 uM after 48 hrs by sulforhodamine B assay relative to control; details: A498, 48 h, read-out: Activity
OVCAR-4 = assay: Cytotoxicity against human OVCAR4 cells assessed as growth inhibition after 48 hrs by sulforhodamine B assay; details: OVCAR-4, 48 h
OVCAR-3 = assay: Cytotoxicity against human OVCAR3 cells assessed as cell growth at 1 uM after 48 hrs by sulforhodamine B assay relative to control; details: OVCAR-3, 48 h, read-out: Activity
K562 = assay: Cytotoxicity against human K562 cells assessed as cell growth at 0.1 uM after 48 hrs by sulforhodamine B assay relative to control; details: K562, 48 h, read-out: Activity
SNB-19 = assay: Cytotoxicity against human SNB19 cells assessed as cell growth at 1 uM after 48 hrs by sulforhodamine B assay relative to control; details: SNB-19, 48 h, read-out: Activity
UO-31 = assay: Cytotoxicity against human UO31 cells assessed as cell growth at 100 uM after 48 hrs by sulforhodamine B assay relative to control; details: UO-31, 48 h, read-out: Activity
A549 = assay: Cytotoxicity against human A549/ATCC cells assessed as cell growth at 0.1 uM after 48 hrs by sulforhodamine B assay relative to control; details: A549, 48 h, read-out: Activity
786-0 [3] = assay: Cytotoxicity against human 786-0 cells assessed as growth inhibition after 48 hrs by sulforhodamine B assay; details: 786-0, 48 h
SK-OV-3 [4] = assay: Cytotoxicity against human SKOV3 cells assessed as cell growth at 100 uM after 48 hrs by sulforhodamine B assay relative to control; details: SK-OV-3, 48 h, read-out: Activity
PC-3 = assay: Cytotoxicity against human PC3 cells assessed as cell growth at 100 uM after 48 hrs by sulforhodamine B assay relative to control; details: PC-3, 48 h, read-out: Activity
HL-60(TB) = assay: Cytotoxicity against human HL-60(TB) cells assessed as cell growth at 0.1 uM after 48 hrs by sulforhodamine B assay relative to control; details: HL-60, 48 h, read-out: Activity
MOLT-4 = assay: Cytotoxicity against human MOLT4 cells assessed as cell growth at 1 uM after 48 hrs by sulforhodamine B assay relative to control; details: MOLT-4, 48 h, read-out: Activity
MDA-MB-231 [5] = assay: Cytotoxicity against human MDA-MB-231 cells assessed as cell growth at 1 uM after 48 hrs by sulforhodamine B assay relative to control; details: MDA-MB-231, 48 h, read-out: Activity
M14 = assay: Cytotoxicity against human M14 cells assessed as cell growth at 0.1 uM after 48 hrs by sulforhodamine B assay relative to control; details: M14, 48 h, read-out: Activity
Malme-3M = assay: Cytotoxicity against human MALME-3M cells assessed as growth inhibition after 48 hrs by sulforhodamine B assay
HCT-15 = assay: Cytotoxicity against human HCT15 cells assessed as cell growth at 1 uM after 48 hrs by sulforhodamine B assay relative to control; details: HCT-15, 48 h, read-out: Activity
MCF7 [6] = assay: Cytotoxicity against human MCF7 cells assessed as cell growth at 0.1 uM after 48 hrs by sulforhodamine B assay relative to control; details: MCF7, 48 h, read-out: Activity
MCF7 [7] = assay: Cytotoxicity against human MCF7 cells assessed as cell growth at 1 uM after 48 hrs by sulforhodamine B assay relative to control; details: MCF7, 48 h, read-out: Activity
IGROV-1 = assay: Cytotoxicity against human IGROV1 cells assessed as cell growth at 0.01 uM after 48 hrs by sulforhodamine B assay relative to control; details: IGROV-1, 48 h, read-out: Activity
UACC-257 = assay: Cytotoxicity against human UACC257 cells assessed as cell growth at 0.01 uM after 48 hrs by sulforhodamine B assay relative to control; details: UACC-257, 48 h, read-out: Activity
SK-OV-3 [8] = assay: Cytotoxicity against human SKOV3 cells assessed as growth inhibition after 48 hrs by sulforhodamine B assay; details: SK-OV-3, 48 h
MCF7 [9] = assay: Cytotoxicity against human MCF7 cells assessed as cell growth at 10 uM after 48 hrs by sulforhodamine B assay relative to control; details: MCF7, 48 h, read-out: Activity
MDA-MB-231 [10] = assay: Cytotoxicity against human MDA-MB-231 cells assessed as growth inhibition after 48 hrs by sulforhodamine B assay; details: MDA-MB-231, 48 h
HCC 2998 = assay: Cytotoxicity against human HCC2998 cells assessed as cell growth at 10 uM after 48 hrs by sulforhodamine B assay relative to control; details: HCC 2998, 48 h, read-out: Activity
UACC-62 = assay: Cytotoxicity against human UACC62 cells assessed as cell growth at 10 uM after 48 hrs by sulforhodamine B assay relative to control; details: UACC-62, 48 h, read-out: Activity
NCI-H23 [11] = assay: Cytotoxicity against human NCI-H23 cells assessed as cell growth at 100 uM after 48 hrs by sulforhodamine B assay relative to control; details: NCI-H23, 48 h, read-out: Activity
NCI-H322M = assay: Cytotoxicity against human NCI-H322M cells assessed as cell growth at 0.01 uM after 48 hrs by sulforhodamine B assay relative to control; details: read-out: Activity
TK-10 = assay: Cytotoxicity against human TK10 cells assessed as cell growth at 10 uM after 48 hrs by sulforhodamine B assay relative to control; details: TK-10, 48 h, read-out: Activity
RXF 393 = assay: Cytotoxicity against human RXF393 cells assessed as cell growth at 1 uM after 48 hrs by sulforhodamine B assay relative to control; details: RXF 393, 48 h, read-out: Activity
SF-268 = assay: Cytotoxicity against human SF268 cells assessed as cell growth at 100 uM after 48 hrs by sulforhodamine B assay relative to control; details: SF-268, 48 h, read-out: Activity
NCI-H522 = assay: Cytotoxicity against human NCI-H522 cells assessed as cell growth at 0.1 uM after 48 hrs by sulforhodamine B assay relative to control; details: NCI-H522, 48 h, read-out: Activity

**Q.** For `COc1ccc(-c2cc(/C=C/C(=O)c3ccc(OC)c(OC)c3)[nH]n2)cc1`, which growth at 10 µM (NCI-H23 [1]) is on record?
**A.** -24%

**Q.** What about the growth at 10 µM (786-0 [2]) of the same compound?
**A.** -89%

**Q.** What about the growth at 100 µM (SF-539) of the same compound?
**A.** -99%

**Q.** And the growth at 0.1 µM (Hs-578T)?
**A.** 92%

**Q.** And the growth at 1 µM (A498)?
**A.** 69%

**Q.** And the GI50 (OVCAR-4)?
**A.** 0.59 µM

**Q.** What about the LC50 (OVCAR-4) of the same compound?
**A.** 28.4 µM

**Q.** And the TGI (OVCAR-4)?
**A.** 3.87 µM

**Q.** And the growth at 1 µM (OVCAR-3)?
**A.** 62%

**Q.** And the growth at 0.1 µM (K562)?
**A.** 108%

**Q.** And the growth at 1 µM (SNB-19)?
**A.** 80%

**Q.** What about the growth at 100 µM (UO-31) of the same compound?
**A.** -100%

**Q.** And the growth at 0.1 µM (A549)?
**A.** 90%

**Q.** What about the GI50 (786-0 [3]) of the same compound?
**A.** 1.6 µM

**Q.** What about the LC50 (786-0 [3]) of the same compound?
**A.** 5.96 µM

**Q.** What about the TGI (786-0 [3]) of the same compound?
**A.** 3.09 µM

**Q.** And the growth at 100 µM (SK-OV-3 [4])?
**A.** -95%

**Q.** And the growth at 100 µM (PC-3)?
**A.** -90%

**Q.** And the growth at 0.1 µM (HL-60(TB))?
**A.** 104%

**Q.** What about the growth at 1 µM (MOLT-4) of the same compound?
**A.** 95%

**Q.** What about the growth at 1 µM (MDA-MB-231 [5]) of the same compound?
**A.** 79%

**Q.** And the growth at 0.1 µM (M14)?
**A.** 105%

**Q.** And the GI50 (Malme-3M)?
**A.** 1.62 µM

**Q.** And the LC50 (Malme-3M)?
**A.** 7.38 µM

**Q.** What about the TGI (Malme-3M) of the same compound?
**A.** 3.45 µM

**Q.** And the growth at 1 µM (HCT-15)?
**A.** 65%

**Q.** And the growth at 0.1 µM (MCF7 [6])?
**A.** 88%

**Q.** What about the growth at 1 µM (MCF7 [7]) of the same compound?
**A.** 27%

**Q.** What about the growth at 0.01 µM (IGROV-1) of the same compound?
**A.** 97%

**Q.** And the growth at 0.01 µM (UACC-257)?
**A.** 92%

**Q.** And the GI50 (SK-OV-3 [8])?
**A.** 5.56 µM

**Q.** What about the LC50 (SK-OV-3 [8]) of the same compound?
**A.** 43.4 µM

**Q.** And the TGI (SK-OV-3 [8])?
**A.** 17.1 µM

**Q.** And the growth at 10 µM (MCF7 [9])?
**A.** -82%

**Q.** What about the GI50 (MDA-MB-231 [10]) of the same compound?
**A.** 2 µM

**Q.** And the LC50 (MDA-MB-231 [10])?
**A.** 30 µM

**Q.** And the TGI (MDA-MB-231 [10])?
**A.** 6.63 µM

**Q.** What about the growth at 10 µM (HCC 2998) of the same compound?
**A.** -68%

**Q.** And the growth at 10 µM (UACC-62)?
**A.** -77%

**Q.** What about the growth at 100 µM (NCI-H23 [11]) of the same compound?
**A.** -73%

**Q.** And the growth at 0.01 µM (NCI-H322M)?
**A.** 94%

**Q.** What about the growth at 10 µM (TK-10) of the same compound?
**A.** -59%

**Q.** What about the growth at 1 µM (RXF 393) of the same compound?
**A.** 72%

**Q.** And the growth at 100 µM (SF-268)?
**A.** -63%

**Q.** And the growth at 0.1 µM (NCI-H522)?
**A.** 111%

**Q.** What does the source list for `COc1ccc(C(=O)/C=C/c2cc(-c3cc(OC)c(OC)c(OC)c3)n[nH]2)cc1OC`?
**A.** growth at 10 µM (NCI-H23 [1]): -36%; growth at 10 µM (786-0 [2]): -88%; growth at 100 µM (SF-539): -96%; growth at 0.1 µM (Hs-578T): 99%; growth at 1 µM (A498): 78%; LC50 (OVCAR-4): 49.9 µM; TGI (OVCAR-4): 16.6 µM; growth at 1 µM (OVCAR-3): 91%; growth at 0.1 µM (K562): 92%; growth at 1 µM (SNB-19): 73%; growth at 100 µM (UO-31): -96%; growth at 0.1 µM (A549): 98%; LC50 (786-0 [3]): 5.82 µM; TGI (786-0 [3]): 2.86 µM; growth at 100 µM (SK-OV-3 [4]): -98%; growth at 100 µM (PC-3): -95%; growth at 0.1 µM (HL-60(TB)): 94%; growth at 1 µM (MOLT-4): 88%; growth at 1 µM (MDA-MB-231 [5]): 77%; growth at 0.1 µM (M14): 98%; LC50 (Malme-3M): 6.79 µM; TGI (Malme-3M): 3.68 µM; growth at 1 µM (HCT-15): 65%; growth at 0.1 µM (MCF7 [6]): 91%; growth at 1 µM (MCF7 [7]): 31%; growth at 0.01 µM (IGROV-1): 98%; growth at 0.01 µM (UACC-257): 85%; LC50 (SK-OV-3 [8]): 27.6 µM; TGI (SK-OV-3 [8]): 7.82 µM; growth at 10 µM (MCF7 [9]): -76%; LC50 (MDA-MB-231 [10]): 6.32 µM; TGI (MDA-MB-231 [10]): 3.06 µM; growth at 10 µM (HCC 2998): -85%; growth at 10 µM (UACC-62): -92%; growth at 100 µM (NCI-H23 [11]): -75%; growth at 0.01 µM (NCI-H322M): 94%; growth at 10 µM (TK-10): 100%; growth at 1 µM (RXF 393): 72%; growth at 100 µM (SF-268): -88%; growth at 0.1 µM (NCI-H522): 91%
